This note sets out measurements from US9957257B2, “Amide compounds as 5-HT4 receptor agonists” (SUVEN LIFE SCIENCES LIMITED, priority 2015, dated 2018).

SMILES strings stand for the structures. pEC50: −log10 of the molar value. Where a name gives a salt, the structure may show the parent alone.

In this test the target is T1, recombinant human 5-HT4 receptor (Homo sapiens, UniProt Q13639).
T1 construct: expressed in transfected cells
T1 sequence (Q13639 whole entry): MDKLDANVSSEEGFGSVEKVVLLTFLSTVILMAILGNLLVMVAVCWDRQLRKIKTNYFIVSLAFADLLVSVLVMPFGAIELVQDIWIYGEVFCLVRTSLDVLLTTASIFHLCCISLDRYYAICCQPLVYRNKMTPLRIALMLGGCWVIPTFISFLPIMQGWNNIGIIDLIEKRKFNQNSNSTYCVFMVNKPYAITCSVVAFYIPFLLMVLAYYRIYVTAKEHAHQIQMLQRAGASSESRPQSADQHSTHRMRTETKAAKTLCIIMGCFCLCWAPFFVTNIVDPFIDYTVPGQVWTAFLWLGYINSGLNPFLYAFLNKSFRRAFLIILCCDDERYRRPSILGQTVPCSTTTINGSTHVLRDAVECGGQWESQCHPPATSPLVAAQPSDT
Briefly: Determination of EC50 values for 5-HT4 receptor (CHO cells, pCRE-Luc reporter). As to conditions: luciferase reporter, 4 hours incubation, read-out: 5-HT4 receptor agonistic binding in-vitro EC50. The class given is cell-based. On the procedure: A stable CHO cell line expressing recombinant human 5-HT4 receptor and pCRE-Luc reporter system was used for cell-based assay. The assay offers a non-radioactive based approach to determine binding of a compound to GPCRs. In this specific assay, the level of intracellular cyclic AMP, which is modulated by activation, or inhibition of the receptor is measured. The recombinant cells harbor luciferase reporter gene under the control of cAMP response element.
The above cells were grown in 96 well clear bottom white plates in Hams F12 medium containing 10% fetal bovine serum (FBS). Prior to the addition of compounds or standard agonist, cells were serum starved overnight. Increasing concentrations of test compounds were added in OptiMEM medium to the cells. The incubation was continued at 37° C. in CO2 incubator for 4 hours. Medium was removed and cells were washed with phosphate buffered saline. The cells were lysed and luciferase activity was measured in a Luminometer. Luminescence units were plotted against the compound concentrations using Graphpad software. EC50 values of the compounds were defined as the concentration required in stimulating the luciferase activity by 50%.
For orientation: A reporter such as luciferase makes a cellular process visible.
The term pEC50 denotes −log10 of the EC50, conventionally taken in molar units. For `CC(C)N1CC2C(CNC(=O)c3cc(Cl)c(N)c4c3OCC4)C2C1` (centres unmarked) [Example 20, 4-Amino-5-chloro-N-[(3-isopropyl-3-azabicyclo[3.1.0]hex-6-yl)methyl]-2,3-dihydrobenzofuran-7-carboxamide oxalate], the pEC50 is 8.00 to 8.29.
Under `Nc1c(Br)cc(C(=O)NCC2C3CN(CC4CCOCC4)CC23)c2c1CCCO2` (stereo not drawn) [Example 12, 5-Amino-6-bromo-N-{[3-(tetrahydro-2H-pyran-4-ylmethyl)-3-azabicyclo[3.1.0]hex-6-yl]methyl}chroman-8-carboxamide L(+)-tartarate] stands 8.30 to 8.96; under `COC(=O)N1CCC(N2CC3C(CNC(=O)c4cc(Cl)c(N)c5c4OCC5)C3C2)CC1` (stereo not drawn) [Example 24, 4-Amino-5-chloro-N-{[3-(1-methoxycarbonylpiperidine-4-yl)-3-azabicyclo[3.1.0]hex-6-yl]methyl}-2,3-dihydrobenzofuran-7-carboxamide L(+)-tartarate], 8.00 to 8.29; under `Nc1c(Br)cc(C(=O)NCC2C3CN(C4CCOCC4)CC23)c2c1CCO2` (centres unmarked) [Example 29, 4-Amino-5-bromo-N-{[3-(tetrahydropyran-4-yl)-3-azabicyclo[3.1.0]hex-6-yl]methyl}-2,3-dihydrobenzofuran-7-carboxamide oxalate], 7.70 to 8.00.
Under `Nc1c(Cl)cc(C(=O)NCC2C3CN(CC4(O)CCOCC4)CC23)c2occc12` (centres unmarked) [Example 32, 4-Amino-5-chloro-N-{[3-(4-hydroxytetrahydro-2H-pyran-4-ylmethyl)-3-azabicyclo[3.1.0]hex-6-yl]methyl}benzofuran-7-carboxamide oxalate] stands 8.00 to 8.29; under `Nc1c(Cl)cc(C(=O)NCC2CCN(CCF)CC2)c2c1CCCO2` [Example 66, 5-Amino-6-chloro-N-{[1-(2-fluoroethyl)-4-piperidinyl]methyl}chroman-8-carboxamide], 8.30 to 8.96; under `Nc1c(Cl)cc(C(=O)NCC2C3CN(CC4(F)CCOCC4)CC23)c2c1CCCO2` (stereo not drawn) [Example 36, 5-Amino-6-chloro-N-{[3-(4-fluorotetrahydro-2H-pyran-4-ylmethyl)-3-azabicyclo[3.1.0]hex-6-yl]methyl}chroman-8-carboxamide L(+)-tartarate], at least 9.00.
On to `COC(=O)N1CCC(N2CC3C(CNC(=O)c4cc(Cl)c(N)c5ccoc45)C3C2)CC1` (centres unmarked) [Example 17, 4-Amino-5-chloro-N-{[3-(1-methoxycarbonylpiperidine-4-yl)-3-azabicyclo[3.1.0]hex-6-yl]methyl}benzofuran-7-carboxamide oxalate], for which the pEC50 was 8.00 to 8.29.
Then `CC(C)(CO)CN1CC2C(CNC(=O)c3cc(Cl)c(N)c4c3OCCC4)C2C1` (stereo not drawn) [Example 58, 5-Amino-6-chloro-N-{[3-(3-hydroxy-2,2-dimethylpropyl)-3-azabicyclo[3.1.0]hex-6-yl]methyl}chroman-8-carboxamide L(+)-tartarate], with at least 9.00; and `Nc1c(Cl)cc(C(=O)NCC2C3CN(CC4CCOCC4)CC23)c2c1CCCO2` (centres unmarked) [Example 1, 5-Amino-6-chloro-N-{[3-(tetrahydro-2H-pyran-4-ylmethyl)-3-azabicyclo[3.1.0]hex-6-yl]methyl}chroman-8-carboxamide hydrochloride], with at least 9.00.
Then `Nc1c(Cl)cc(C(=O)NCC2C3CN(CC4CCOCC4)CC23)c2c1CCO2` (stereo not drawn) [Example 26, 4-Amino-5-chloro-N-{[3-(tetrahydropyran-4-ylmethyl)-3-azabicyclo[3.1.0]hex-6-yl]methyl}-2,3-dihydrobenzofuran-7-carboxamide L(+)-tartarate], with 8.30 to 8.96; and `Nc1c(Cl)cc(C(=O)NCC2C3CN(C4CCOCC4)CC23)c2occc12` (centres unmarked) [Example 15, 4-Amino-5-chloro-N-{[3-(tetrahydro-2H-pyran-4-yl)-3-azabicyclo[3.1.0]hex-6-yl]methyl}benzofuran-7-carboxamide oxalate], with 7.70 to 8.00; and `Nc1c(Cl)cc(C(=O)NCC2C3CN(CC4CCC4)CC23)c2c1CCO2` (centres unmarked) [Example 22, 4-Amino-5-chloro-N-{[3-(cyclobutylmethyl)-3-azabicyclo[3.1.0]hex-6-yl]methyl}-2,3-dihydrobenzofuran-7-carboxamide oxalate], with 8.30 to 8.96.
As for `CC(C)(O)CN1CCC(CNC(=O)c2cc(Cl)c(N)c3c2OCCC3)CC1` [Example 41, 5-Amino-6-chloro-N-{[1-(2-hydroxy-2-methylpropyl)-4-piperidinyl]methyl}chroman-8-carboxamide L(+)-tartarate], the pEC50 is 7.70 to 8.00.
Then `Nc1c(Cl)cc(C(=O)NCC2C3CN(CC4(O)CCOCC4)CC23)c2c1CCCO2` (stereo not drawn) [Example 30, 5-Amino-6-chloro-N-{[3-(4-hydroxytetrahydro-2H-pyran-4-ylmethyl)-3-azabicyclo[3.1.0]hex-6-yl]methyl}chroman-8-carboxamide L(+)-tartarate], with 8.30 to 8.96; and `Nc1ccc(C(=O)NCC2C3CN(CC4CCOCC4)CC23)c2c1CCCO2` (stereo not drawn) [Example 7, 5-Amino-N-{[3-(tetrahydro-2H-pyran-4-ylmethyl)-3-azabicyclo[3.1.0]hex-6-yl]methyl}chroman-8-carboxamide L(+)-tartarate], with 7.70 to 8.00.
`Cc1cc2c(N)c(Cl)cc(C(=O)NCC3CCN(CC(C)(C)CO)CC3)c2o1` [Example 59, 4-Amino-5-chloro-2-methyl-N-{[1-(3-hydroxy-2,2-dimethylpropyl)-4-piperidinyl]methyl}benzofuran-7-carboxamide]: the pEC50 was at least 9.00.
As to `Nc1c(Cl)cc(C(=O)NCC2[C@H]3CN(CC4CCOC4)C[C@@H]23)c2c1CCCO2` (stereo partly drawn) [Example 8, (R,S) 5-Amino-6-chloro-N-{[3-(tetrahydro-3-furanylmethyl)-3-azabicyclo[3.1.0]hex-6-yl]methyl}chroman-8-carboxamide], the pEC50 was at least 9.00.
Under `Nc1c(Cl)cc(C(=O)NCC2C3CN(CC4CCOCC4)CC23)c2occc12` (centres unmarked) [Example 13, 4-Amino-5-chloro-N-{[3-(tetrahydro-2H-pyran-4-ylmethyl)-3-azabicyclo[3.1.0]hex-6-yl]methyl}benzofuran-7-carboxamide hydrochloride] stands 8.00 to 8.29; under `CC(C)(F)CN1CCC(CNC(=O)c2cc(Cl)c(N)c3c2OCCC3)CC1` [Example 55, 5-Amino-6-chloro-N-{[1-(2-fluoro-2-methylpropyl)-4-piperidinyl]methyl}chroman-8-carboxamide], at least 9.00.
Under `Nc1c(Cl)cc(C(=O)NCC2C3CN(C4CCOCC4)CC23)c2c1CCCO2` (stereo not drawn) [Example 6, 5-Amino-6-chloro-N-{[3-(tetrahydro-2H-pyran-4-yl)-3-azabicyclo[3.1.0]hex-6-yl]methyl}chroman-8-carboxamide L(+)-tartarate] stands 8.30 to 8.96; under `Nc1c(Cl)cc(C(=O)NCC2C3CN(C4CCOCC4)CC23)c2c1CCO2` (centres unmarked) [Example 28, 4-Amino-5-chloro-N-{[3-(tetrahydropyran-4-yl)-3-azabicyclo[3.1.0]hex-6-yl]methyl}-2,3-dihydrobenzofuran-7-carboxamide oxalate], 8.00 to 8.29; under `CC(C)(O)CN1CCC(CNC(=O)c2cc(Cl)c(N)c3ccoc23)CC1` [Example 49, 4-Amino-5-chloro-N-{[1-(2-hydroxy-2-methylpropyl)-4-piperidinyl]methyl}benzofuran-7-carboxamide L(+)-tartarate], 8.30 to 8.96.
